Experiments:
[1] = system: transgenic Drosophila melanogaster with an inducible tau; assay: Timed crawl test in transgenic flies with RU-486-inducible human tau; format: in vivo; settings: RU-486-treated tau transgenic flies, crawl tests twice each week as flies aged (FIG. 1A, FIG. 2)
Procedure: FIGS. 1A and 1B show typical screens of transgenic Drosophila melanogaster with an inducible tau (FIG. 1A) or Abeta (FIG. 1B), which greatly reduces neural function with age. To assay for fly behavior changes as neural dysfunction progresses, timed crawl tests in which the time it takes individual flies to climb to the top of a test vial were performed twice each week as the flies aged. Select compositions were screened for use on the transgenic flies using the genetically targeted substances believed to act on longevity genes. Different dose concentrations were tested. Two hundred flies (1 fly of each sex in each of 100 vials) for each test condition were used. RU-486 was added to all fly samples except the untreated controls named Untreated (dashed blue line) and the A+P+T Control) about 4-5 days after flies were placed in vials. The first crawl tests were started about 9-10 days after insertion into vials and 5-6 days after RU addition (see FIGS. 1A and 1B). In Untreated Controls (dashed blue line), young flies typically crawl to the top of the vial quickly in 7-10 seconds, while older flies have progressively longer crawl times of up to 40 seconds or more with advancing age. The RU Controls (solid blue line) were treated with RU-486 without any helper substance and therefore have poor crawling tests and die early at 7 weeks (tau in FIG. 1A) or 5 weeks (Abeta in FIG. 1B). […]

[2] = system: transgenic Drosophila melanogaster with an inducible Abeta; assay: Timed crawl test in transgenic flies with RU-486-inducible human Abeta; format: in vivo; settings: RU-486-treated Abeta transgenic flies (FIG. 1B)
Procedure: To assay for fly behavior changes as neural dysfunction progresses, timed crawl tests in which the time it takes individual flies to climb to the top of a test vial were performed twice each week as the flies aged. Select compositions were screened for use on the transgenic flies using the genetically targeted substances believed to act on longevity genes. Different dose concentrations were tested. Two hundred flies (1 fly of each sex in each of 100 vials) for each test condition were used. RU-486 was added to all fly samples except the untreated controls named Untreated (dashed blue line) and the A+P+T Control) about 4-5 days after flies were placed in vials. The first crawl tests were started about 9-10 days after insertion into vials and 5-6 days after RU addition (see FIGS. 1A and 1B). […] The single substances and substance combinations are shown by the one letter codes: A=Astragalus, P=Pterocarpus, T=L-Theanine, G=Genistein, B=Berberine, L=Lithium, and S=Selenium.
To assay for fly neural functional decline with age as Abeta, tau, or the Park gene is induced, crawl times were used to test substances initially picked from the genomics work.

rats = settings: in rats; cited from earlier work

Compound | crawl time / delay of neuronal dysfunction induced by human tau expression [1] | crawl time / protection against dementia induced by human Abeta expression [2] | neuroprotection (rats)
CC12CC3CC(C)(C1)CC(N)(C3)C2 [Mementin, reference compound] | works very well |  | 
[Se] [Selenium] | can protect against dementia | can protect against dementia | 
CCNC(=O)CC[C@H](N)C(=O)O [L-Theanine, gamma-glutamylethylamide] |  |  | neuroprotective

— US9744204B1, “Multipath nutritional supplement for memory, cognition, and coordination” (priority 2015, dated 2017)
